Assay results reported in US20240101546A1, “HETEROARYL-ACETYLENES, PHARMACEUTICAL COMPOSITIONS THEREOF, AND THEIR THERAPEUTIC APPLICATIONS” (Eubulus Biotherapeutics Inc., priority 2020, published 2024).

tested on: lung cancer cell line NCI-H82; experiment: Cell proliferation assay, NCI-H82 (CELL-TITER GLO); assay type: cell-based; details: Homo sapiens, NCI-H82, 72 h, NCI-H82 cells, 72 h incubation, cell viability by CELL-TITER GLO, top concentration 1 μM; read-out: EC50, Inhibition of NCl-H82 Cell Proliferation
Outline: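 NCI-H82 cells, 1,000 per well in RPMI1640, were treated after overnight plating with a 3-fold dilution series from 1 μM. Viability read by CellTiter-Glo luminescence after 72 h. EC50 derived from the curves.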

Row | Compound | EC50 [nM]
1 | C#Cc1nc(NC(=O)N[C@@H](C(N)=O)c2ccc(-c3cccc4ncsc34)cc2)cs1 [Compound A210, (R)-2-(4-(Benzo[d]thiazol-7-yl)phenyl)-2-(3-(2-ethynylthiazol-4-yl)ureido)-acetamide] | ≤ 200
2 | C#Cc1nc(NC(=O)N[C@H](C(N)=O)c2ccc(-c3cccc4ncsc34)cc2)cs1 [Compound A211, (S)-2-(4-(Benzo[d]thiazol-7-yl)phenyl)-2-(3-(2-ethynylthiazol-4-yl)ureido)-acetamide] | ≤ 200
3 | C#Cc1nc(NC(=O)N[C@@H](C(N)=O)c2ccc(-c3cccc(C4(C#N)CC4)c3)cc2)cs1 [Compound A212, (R)-2-(3′-(1-Cyanocyclopropyl)-[1,1′-biphenyl]-4-yl)-2-(3-(2-ethynylthiazol-4-yl)ureido)acetamide] | ≤ 200
4 | C#Cc1nc(NC(=O)N[C@@H](C(=O)NC)c2ccc(-c3cccc4nc[nH]c(=O)c34)cc2)cs1 [Compound A213, (R)-2-(3-(2-Ethynylthiazol-4-yl)ureido)-N-methyl-2-(4-(4-oxo-3,4-dihydro-quinazolin-5-yl)phenyl)acetamide] | ≤ 200
5 | C#Cc1nc(NC(=O)NC(C(=O)NC)c2ccc(-c3cccc4ncsc34)cc2)cs1 (centres unmarked) [Compound A214, 2-(4-(Benzo[d]thiazol-7-yl)phenyl)-2-(3-(2-ethynylthiazol-4-yl)ureido)-N-methylacetamide] | ≤ 200
6 | C#Cc1nc(NC(=O)N[C@@H](C(=O)NC)c2ccc(-c3cccc4ncsc34)cc2)cs1 [Compound A215, (R)-2-(4-(Benzo[d]thiazol-7-yl)phenyl)-2-(3-(2-ethynylthiazol-4-yl)ureido)-N-methylacetamide] | ≤ 200
7 | C#Cc1nc(NC(=O)N[C@H](C(=O)NC)c2ccc(-c3cccc4ncsc34)cc2)cs1 [Compound A216, (S)-2-(4-(Benzo[d]thiazol-7-yl)phenyl)-2-(3-(2-ethynylthiazol-4-yl)ureido)-N-methylacetamide] | ≤ 200
8 | C#Cc1nc(NC(=O)N[C@@H](C(=O)NC)c2ccc(-c3cccc(C4(C#N)CC4)c3)cc2)cs1 [Compound A217, (R)-2-(3′-(1-Cyanocyclopropyl)-[1,1′-biphenyl]-4-yl)-2-(3-(2-ethynylthiazol-4-yl)ureido)-N-methylacetamide] | ≤ 200
9 | C#Cc1nc(NC(=O)N[C@@H](C(=O)NC)c2ccc(-c3cccc(C4(O)CC4)c3)cc2)cs1 [Compound A218, (R)-2-(3-(2-Ethynylthiazol-4-yl)ureido)-2-(3′-(1-hydroxycyclopropyl)-[1,1′-biphenyl]-4-yl)-N-methylacetamide] | ≤ 200
10 | C#Cc1nc(NC(=O)N[C@@H](C(=O)NC)c2ccc(-c3cccc(C(=O)CC)c3)cc2)cs1 [Compound A219, (R)-2-(3-(2-Ethynylthiazol-4-yl)ureido)-N-methyl-2-(3′-propionyl-[1,1′-biphenyl]-4-yl)acetamide] | ≤ 200
11 | C#Cc1nc(NC(=O)N[C@@H](C(=O)N(C)C)c2ccc(-c3cccc4ncsc34)cc2)cs1 [Compound A220, (R)-2-(4-(Benzo[d]thiazol-7-yl)phenyl)-2-(3-(2-ethynylthiazol-4-yl)ureido)-N,N-dimethylacetamide] | ≤ 200
12 | C#Cc1nc(NC(=O)N[C@@H](COC(N)=O)c2ccc(-c3cccc(C#N)c3)cc2)cs1 [Compound A221, (R)-2-(3′-Cyano-[1,1′-biphenyl]-4-yl)-2-(3-(2-ethynylthiazol-4-yl)ureido)ethyl carbamate] | ≤ 200
13 | C#Cc1nc(NC(=O)NC(COC(N)=O)c2ccc(-c3cccc(C4(C#N)CC4)c3)cc2)cs1 (centres unmarked) [Compound A222] | ≤ 200
14 | C#Cc1nc(NC(=O)N[C@@H](COC(N)=O)c2ccc(-c3cccc4ncsc34)cc2)cs1 [Compound A223, (R)-2-(4-(Benzo[d]thiazol-7-yl)phenyl)-2-(3-(2-ethynylthiazol-4-yl)ureido)ethyl carbamate] | ≤ 200
15 | C#Cc1nc(NC(=O)N[C@@H](COC(=O)NC)c2ccc(-c3cccc4ncsc34)cc2)cs1 [Compound A224, (R)-2-(4-(Benzo[d]thiazol-7-yl)phenyl)-2-(3-(2-ethynylthiazol-4-yl)ureido)ethyl methylcarbamate] | ≤ 200
16 | C#Cc1nc(NC(=O)N[C@@H](COC(N)=O)c2ccc(-c3cccc4nnsc34)cc2)cs1 [Compound A225, (R)-2-(4-(Benzo[d][1,2,3]thiadiazol-7-yl)phenyl)-2-(3-(2-ethynylthiazol-4-yl)-ureido)ethyl carbamate] | ≤ 200
17 | C#Cc1nc(NC(=O)N[C@@H](COC(N)=O)c2ccc(-c3cccc4nsnc34)cc2)cs1 [Compound A226, (R)-2-(4-(Benzo[c][1,2,5]thiadiazol-4-yl)phenyl)-2-(3-(2-ethynylthiazol-4-yl)-ureido)ethyl carbamate] | ≤ 200
18 | C#Cc1nc(NC(=O)N[C@@H](COC(N)=O)c2ccc(-c3cccc4cccnc34)cc2)cs1 [Compound A227, (R)-2-(3-(2-Ethynylthiazol-4-yl)ureido)-2-(4-(quinolin-8-yl)phenyl)ethyl carbamate] | ≤ 200

Row | Compound | EC50 [nM]
19 | C#Cc1nc(NC(=O)N[C@@H](COC(N)=O)c2ccc(-c3cccc4cnccc34)cc2)cs1 [Compound A229, (R)-2-(3-(2-Ethynylthiazol-4-yl)ureido)-2-(4-(isoquinolin-5-yl)phenyl)ethyl carbamate] | ≤ 200
20 | C#Cc1nc(NC(=O)N[C@@H](COC(N)=O)c2ccc(-c3cccc4ncccc34)cc2)cs1 [Compound A230, (R)-2-(3-(2-Ethynylthiazol-4-yl)ureido)-2-(4-(quinolin-5-yl)phenyl)ethyl carbamate] | ≤ 200
21 | C#Cc1nc(NC(=O)N[C@@H](COC(N)=O)c2ccc(-c3cccc4c3cnn4C)cc2)cs1 [Compound A231, (R)-2-(3-(2-Ethynylthiazol-4-yl)ureido)-2-(4-(1-methyl-1H-indazol-4-yl)phenyl)-ethyl carbamate] | ≤ 200
22 | C#Cc1nc(NC(=O)N[C@@H](COC(N)=O)c2ccc(C3CCCc4c3cnn4C)cc2)cs1 (stereo partly drawn) [Compound A232, (2R)-2-(3-(2-Ethynylthiazol-4-yl)ureido)-2-(4-(1-methyl-4,5,6,7-tetrahydro-1H-indazol-4-yl)phenyl)ethyl carbamate] | ≤ 200
23 | C#Cc1nc(NC(=O)N[C@@H](COC(N)=O)c2ccc(C3=CCCc4c3cnn4C)cc2)cs1 [Compound A233, (R)-2-(3-(2-Ethynylthiazol-4-yl)ureido)-2-(4-(1-methyl-6,7-dihydro-1H-indazol-4-yl)phenyl)ethyl carbamate] | ≤ 200
24 | C#Cc1nc(NC(=O)N[C@@H](COC(N)=O)c2ccc(-c3cccc(N4CCCC4)n3)cc2)cs1 [Compound A234, (R)-2-(3-(2-Ethynylthiazol-4-yl)ureido)-2-(4-(6-(pyrrolidin-1-yl)pyridin-2-yl)-phenyl)ethyl carbamate] | ≤ 200
25 | C#Cc1nc(NC(=O)N[C@@H](COC(N)=O)c2ccc(-c3ccnc(N4CCCC4)c3)cc2)cs1 [Compound A235, (R)-2-(3-(2-Ethynylthiazol-4-yl)ureido)-2-(4-(2-(pyrrolidin-1-yl)pyridin-4-yl)-phenyl)ethyl carbamate] | ≤ 200
26 | C#Cc1nc(NC(=O)N[C@@H](COC(N)=O)c2ccc(-c3cccc(C4(C#N)CC4)c3)cn2)cs1 [Compound A236, (R)-2-(5-(3-(1-Cyanocyclopropyl)phenyl)pyridin-2-yl)-2-(3-(2-ethynylthiazol-4-yl)ureido)ethyl carbamate] | ≤ 200
27 | C#Cc1nc(NC(=O)NCC2CCC(c3cccc(C4(C#N)CC4)c3)CC2)cs1 (centres unmarked) [Compound A238, 1-((4-(3-(1-Cyanocyclopropyl)phenyl)cyclohexyl)methyl)-3-(2-ethynylthiazol-4-yl)urea] | ≤ 200
28 | C#Cc1nc(NC(=O)NCC2CC=C(c3cccc(C4(C#N)CC4)c3)CC2)cs1 (centres unmarked) [Compound A239, 1-((3′-(1-Cyanocyclopropyl)-2,3,4,5-tetrahydro-[1,1′-biphenyl]-4-yl)methyl)-3-(2-ethynylthiazol-4-yl)urea] | ≤ 200
29 | C#Cc1nc(NC(=O)NCC2CCN(c3cccc(C4(C#N)CC4)c3)CC2)cs1 [Compound A240, 1-((1-(3-(1-Cyanocyclopropyl)phenyl)piperidin-4-yl)methyl)-3-(2-ethynylthiazol-4-yl)urea] | ≤ 200
30 | C#Cc1nccc(NC(=O)N[C@@H](CO)c2ccc(-c3cccc4ncsc34)cc2)n1 [Compound A241, (R)-1-(1-(4-(Benzo[d]thiazol-7-yl)phenyl)-2-hydroxyethyl)-3-(2-ethynyl-pyrimidin-4-yl)urea] | ≤ 200
31 | C#Cc1nc(NC(=O)N2CCN(c3ccc(-c4cccc(N5CCCC5)c4)cc3)CC2)cs1 [Compound B15, N-(2-Ethynylthiazol-4-yl)-4-(3′-(pyrrolidin-1-yl)-[1,1′-biphenyl]-4-yl)piperazine-1-carboxamide] | ≤ 200
32 | C#Cc1nc(NC(=O)N2CCN(c3ccc(-c4cccc5c4cnn5C)cc3)CC2)cs1 [Compound B18, N-(2-Ethynylthiazol-4-yl)-4-(4-(1-methyl-1H-indazol-4-yl)phenyl)piperazine-1-carboxamide] | ≤ 200
33 | C#Cc1nc(NC(=O)N2CCN(c3ccc(-c4cccc5ncsc45)cc3)C[C@H]2CO)cs1 [Compound B23, (S)-4-(4-(Benzo[d]thiazol-7-yl)phenyl)-N-(2-ethynylthiazol-4-yl)-2-(hydroxy-methyl)piperazine-1-carboxamide] | ≤ 200
34 | C#Cc1nc(NC(=O)N2CCN(c3ccc(-c4cccc5ncsc45)cc3)C[C@@H]2CO)cs1 [Compound B24, (R)-4-(4-(Benzo[d]thiazol-7-yl)phenyl)-N-(2-ethynylthiazol-4-yl)-2-(hydroxy-methyl)piperazine-1-carboxamide] | ≤ 200
35 | C#Cc1nc(NC(=O)N2CCN(c3ccc(-c4c(C#N)ccc5nc(N)sc45)cc3)CC2)cs1 [Compound B25, 4-(4-(2-Amino-6-cyanobenzo[d]thiazol-7-yl)phenyl)-N-(2-ethynylthiazol-4-yl)-piperazine-1-carboxamide] | ≤ 200
